The values below come from patent publication US20240182445A1 (ONO PHARMACEUTICAL CO., LTD., priority 2019, published 2024).

One experiment concerns the target T1, human TREK-1 (Homo sapiens, UniProt O95069).
T1 construct: expressed in transfected cells
T1 sequence (O95069 1-426): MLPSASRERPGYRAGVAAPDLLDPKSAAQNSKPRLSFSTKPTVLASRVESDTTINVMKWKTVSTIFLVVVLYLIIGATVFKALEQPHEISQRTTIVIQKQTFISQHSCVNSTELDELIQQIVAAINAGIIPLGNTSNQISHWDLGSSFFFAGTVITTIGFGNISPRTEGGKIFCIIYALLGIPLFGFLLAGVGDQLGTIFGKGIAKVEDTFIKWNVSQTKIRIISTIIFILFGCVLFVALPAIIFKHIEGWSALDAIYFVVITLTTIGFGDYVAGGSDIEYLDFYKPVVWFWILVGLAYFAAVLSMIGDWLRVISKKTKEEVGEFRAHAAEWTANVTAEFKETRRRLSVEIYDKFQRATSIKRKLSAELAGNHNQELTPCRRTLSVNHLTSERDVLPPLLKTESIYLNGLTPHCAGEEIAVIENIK
The experiment can be described thus: TREK-1 Thallium (Tl+) flux assay, Method 1. Format: cell-based. To be noted: TREK-1 Thallium (Tl+) flux assay, Method 1. In a few lines: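 Readout: Thallos fluorescence ratio, taken 25 s post-thallium relative to the pre-thallium baseline average, then converted to % inhibition. Cells were CHO-K1 stably expressing human TREK-1, dye-loaded and exposed to test compound (vehicle 0.3% DMSO) for 10 min prior to thallium stimulation.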
`CC(=O)N1CC2(CC(n3ncc(Cl)c3C(=O)Nc3ccc(OCc4ccccc4)cc3C)C2)C1` [Compound 433, 1-(2-acetyl-2-azaspiro[3.3]heptan-6-yl)-N-(4-(benzyloxy)-2-methylphenyl)-4-chloro-1H-pyrazole-5-carboxamide]: the midpoint of inhibition, the IC50, lay at 6.89 µM.
On the same count and under the same terms, as for `Cc1cc(OCc2ccccc2)ccc1NC(=O)c1c(Cl)cnn1C1CCN(C(=O)OC(C)(C)C)CC1` [Compound 430, tert-butyl 4-(5-((4-(benzyloxy)-2-methylphenyl)carbamoyl)-4-chloro-1H-pyrazol-1-yl)piperidine-1-carboxylate], the figure is 6.35 µM; as for `Cc1cc(OCc2ccccc2)ccc1NC(=O)c1c(Cl)cnn1CC1CN(C(=O)C2CC2C)CCO1` (stereo not drawn) [Compound 417, N-(4-(benzyloxy)-2-methylphenyl)-4-chloro-1-((4-(2-methylcyclopropane-1-carbonyl)morpholin-2-yl)methyl)-1H-pyrazole-5-carboxamide], 4.16 µM.
The same measure, in the same setting: under `Cc1cc(-c2ccc(C(F)(F)F)nc2)cnc1NC(=O)c1c(Cl)cnn1C1CCN(C(=O)OC(C)(C)C)CC1` [Compound 396, tert-butyl 4-(4-chloro-5-((5-methyl-6′-(trifluoromethyl)-[3,3′-bipyridin]-6-yl)carbamoyl)-1H-pyrazol-1-yl)piperidine-1-carboxylate] stands 1.6 µM; under `Cc1cc(OCc2ccccc2)ccc1NC(=O)c1c(Cl)cnn1C1CCN(C(=O)C2CCC2)CC1` [Compound 402, N-(4-(benzyloxy)-2-methylphenyl)-4-chloro-1-(1-(cyclobutanecarbonyl)piperidin-4-yl)-1H-pyrazole-5-carboxamide], 2.16 µM; under `CCC(=O)N[C@H]1CC[C@@H](n2ncc(Cl)c2C(=O)Nc2ccc(OCc3ccccc3)cc2C)CC1` [Compound 392, N-(4-(benzyloxy)-2-methylphenyl)-4-chloro-1-(cis-4-propionamidocyclohexyl)-1H-pyrazole-5-carboxamide], 1.26 µM.
Turning to `Cc1cc(OCc2ccccc2)ccc1NC(=O)c1c(Cl)cnn1CC1CN(C(=O)CC(C)C)CCO1` (stereo not drawn) [Compound 429, N-(4-(benzyloxy)-2-methylphenyl)-4-chloro-1-((4-(3-methylbutanoyl)morpholin-2-yl)methyl)-1H-pyrazole-5-carboxamide], the IC50 was 5.52 µM.

Staying with this experiment, now noted: TREK-1 Thallium (Tl+) flux assay; no *^12 (Method 2) mark on these rows.
In turn, `O=C(Nc1ncc(C#Cc2ccccc2)cc1F)c1c(Cl)cnn1C[C@@H]1C[C@H]2CC[C@@H]1O2` (racemic) [Compound 319, 4-chloro-N-[3-fluoro-5-(phenylethynyl)pyridin-2-yl]-1-{[(1S,2S,4R)-7-oxabicyclo[2.2.1]heptan-2-yl]methyl}-1H-pyrazole-5-carboxamide and 4-chloro-N-[3-fluoro-5-{[(1R,2R,4S)-7-oxabicyclo[2.2.1]heptan-2-yl)methyl}-1H-pyrazole-5-carboxamide] came in with an IC50 of 0.62 µM.
On the same count and under the same terms, under `CC(C)(C)OC(=O)N[C@H]1C[C@@H](n2ncc(Cl)c2C(=O)Nc2ncc(C#Cc3ccccc3)cc2F)C1` [Compound 325, tert-butyl (cis-3-(4-chloro-5-((3-fluoro-5-(phenylethynyl)pyridin-2-yl)carbamoyl)-1H-pyrazol-1-yl)cyclobutyl)carbamate] stands 0.64 µM.
Same read-out and setting: as for `Cc1cc(C#Cc2ccccc2)cnc1NC(=O)c1c(Cl)cnn1C1CCN(C(=O)OC(C)(C)C)CC1` [Compound 328], the figure is 0.65 µM.
The same measure, in the same setting: under `CC(C)(C)OC(=O)N1CCC(CCn2ncc(Cl)c2C(=O)Nc2ncc(C#Cc3ccccc3)cc2F)CC1` [Compound 290, tert-butyl 4-(2-(4-chloro-5-((3-fluoro-5-(phenylethynyl)pyridin-2-yl)carbamoyl)-1H-pyrazol-1-yl)ethyl)piperidine-1-carboxylate] stands 0.51 µM; under `CC(C)C(=O)N1CCC[C@H](Cn2ncc(Cl)c2C(=O)Nc2ncc(C#Cc3ccccc3)cc2F)C1` [Compound 288, (S)-4-chloro-N-(3-fluoro-5-(phenylethynyl)pyridin-2-yl)-1-((1-isobutyrylpiperidin-3-yl)methyl)-1H-pyrazole-5-carboxamide], 0.5 µM.
Compound `CC(C)(C)OC(=O)N1CC2(CC(n3ncc(Cl)c3C(=O)Nc3ncc(C#Cc4ccccc4)cc3F)C2)C1` [Compound 334, tert-butyl 6-(4-chloro-5-((3-fluoro-5-(phenylethynyl)pyridin-2-yl)carbamoyl)-1H-pyrazol-1-yl)-2-azaspiro[3.3]heptane-2-carboxylate] registered an IC50 of 0.67 µM.
Same read-out and setting: under `Cc1cc(OCc2ccccc2)ccc1NC(=O)c1c(Cl)cnn1[C@H]1CC[C@@H](NC(=O)CC(C)C)CC1` [Compound 382, N-(4-(benzyloxy)-2-methylphenyl)-4-chloro-1-(cis-4-(3-methylbutanamido)cyclohexyl)-1H-pyrazole-5-carboxamide] stands 0.61 µM; under `CC(=O)N1CCC(CCn2ncc(Cl)c2C(=O)Nc2ncc(C#Cc3ccccc3F)cc2C)CC1` [Compound 196, 1-(2-(1-acetylpiperidin-4-yl)ethyl)-4-chloro-N-(5-((2-fluorophenyl)ethynyl)-3-methylpyridin-2-yl)-1H-pyrazole-5-carboxamide], 0.3 µM.

The experiment is the same for the next values; noted with them: TREK-1 Thallium (Tl+) flux assay; values without footnote *12 are Method 1.
Compound `CC(=O)N1CC[C@@H](Cn2ncc(Cl)c2C(=O)Nc2ncc(C#Cc3ccccc3)cc2C)[C@@H](F)C1` [Compound 109, 1-(((3R,4S)-1-acetyl-3-fluoropiperidin-4-yl)methyl)-4-chloro-N-(3-methyl-5-(phenylethynyl)pyridin-2-yl)-1H-pyrazole-5-carboxamide] displayed an IC50 of 0.19 µM.
For `CC(C)(C)OC(=O)N1CCC(F)(Cn2ncc(Cl)c2C(=O)Nc2ncc(C#Cc3ccccc3)cc2F)CC1` [Compound 134, tert-butyl 4-((4-chloro-5-((3-fluoro-5-(phenylethynyl)pyridin-2-yl)carbamoyl)-1H-pyrazol-1-yl)methyl)-4-fluoropiperidine-1-carboxylate], 0.22 µM corresponded to half-maximal inhibition (IC50). This IC50 and that of the compound before are within 1.5-fold of each other.
The same measure, in the same setting: as for `CCC(=O)N1CCC(n2ncc(Cl)c2C(=O)Nc2ncc(C#Cc3ccccc3)cc2F)CC1` [Compound 34, 4-chloro-N-(3-fluoro-5-(phenylethynyl)pyridin-2-yl)-1-(1-propionylpiperidin-4-yl)-1H-pyrazole-5-carboxamide], the figure is 0.11 µM.
Same read-out and setting: under `CCC(=O)N1CCC(n2ncc(Cl)c2C(=O)Nc2ncc(C#Cc3ccccc3)cc2C)C1` (stereo not drawn) [Compound 106, 4-chloro-N-(3-methyl-5-(phenylethynyl)pyridin-2-yl)-1-(1-propionylpyrrolidin-3-yl)-1H-pyrazole-5-carboxamide] stands 0.19 µM; under `Cc1cc(C#Cc2ccc(F)cc2)cnc1NC(=O)c1c(Cl)cnn1C1CCN(C(=O)C2COCCO2)CC1` (stereo not drawn) [Compound 65, 1-(1-(1,4-dioxane-2-carbonyl)piperidin-4-yl)-4-chloro-N-(5-((4-fluorophenyl)ethynyl)-3-methylpyridin-2-yl)-1H-pyrazole-5-carboxamide], 0.15 µM.
On the same count and under the same terms, under `Cc1cc(C#Cc2ccccc2)cnc1NC(=O)c1c(Cl)cnn1CCC1CCN(C(=O)C2CC2)CC1` [Compound 172, 4-chloro-1-(2-(1-(cyclopropanecarbonyl)piperidin-4-yl)ethyl)-N-(3-methyl-5-(phenylethynyl)pyridin-2-yl)-1H-pyrazole-5-carboxamide] stands 0.27 µM; under `CC1(C(=O)N2CCC(n3ncc(Cl)c3C(=O)Nc3ncc(C#Cc4ccccc4)cc3F)CC2)CCC1` [Compound 112, 4-chloro-N-(3-fluoro-5-(phenylethynyl)pyridin-2-yl)-1-(1-(1-methylcyclobutane-1-carbonyl)piperidin-4-yl)-1H-pyrazole-5-carboxamide], 0.2 µM; under `CC(=O)N1CCC(n2ncc(Cl)c2C(=O)Nc2ncc(C#Cc3ccccc3)cc2C)C(F)C1` (stereo not drawn) [Compound 29, 1-(1-acetyl-3-fluoropiperidin-4-yl)-4-chloro-N-(3-methyl-5-(phenylethynyl)pyridin-2-yl)-1H-pyrazole-5-carboxamide], 0.1 µM.
`Cc1cc(C#Cc2ccccc2)cnc1NC(=O)c1c(Cl)cnn1C[C@@H]1CCOC1` [Compound 160, (S)-4-chloro-N-(3-methyl-5-(phenylethynyl)pyridin-2-yl)-1-((tetrahydrofuran-3-yl)methyl)-1H-pyrazole-5-carboxamide]: the IC50 came out at 0.26 µM. Compared with the last compound, the IC50 is about 2.6-fold higher.
Same read-out and setting: as for `CC(C)(C)OC(=O)N1CCC(Cn2ncc(Cl)c2C(=O)Nc2ncc(C#Cc3ccccc3)cc2F)CC1` [Compound 142, tert-butyl 4-((4-chloro-5-((3-fluoro-5-(phenylethynyl)pyridin-2-yl)carbamoyl)-1H-pyrazol-1-yl)methyl)piperidine-1-carboxylate], the figure is 0.23 µM; as for `CC(=O)N1CCC(n2ncc(Cl)c2C(=O)Nc2ncc(C#Cc3ccccc3F)cc2C)CC1` [Compound 164, 1-(1-acetylpiperidin-4-yl)-4-chloro-N-(5-((2-fluorophenyl)ethynyl)-3-methylpyridin-2-yl)-1H-pyrazole-5-carboxamide], 0.26 µM.

The same experiment, now with this note: read-out: Tl^+ Assay % inhibition at 30 uM (Minus value indicates activation of TREK-1); at 30 uM; CHO-K1 cells stably expressing human TREK-1; minus = activation.
Regarding `CC(=O)N1CCC(CCn2cc(Cl)c(C(=O)Nc3ncc(C#Cc4cccs4)cc3C)n2)CC1` [Compound 440, 1-(2-(1-actetylpiperidin-4-yl)ethyl)-4-chloro-N-(3-methyl-5-(thiophen-2-ylethynyl)pyridin-2-yl)-1H-pyrazole-3-carboxamide], the inhibition at 30 µM is -135%.
